Results reported in ChEMBL document CHEMBL1201862, “PubChem BioAssay data set” (2004).
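Values below derive from 48-hour exposures of cells grown in 96-well plates, with endpoints linearly interpolated between the two concentrations bracketing the appropriate inhibition level. At the GI50, growth is halved.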 Active and inactive are the calls of the source. Rule as the data show it: active = GI50 up to about 1.1 µM and inactive = higher.

What was measured:
Assay in all cases: DTP human tumour cell line panel, 48 h
786-0 = tested on: 786-0
A498 = tested on: A498
A549 = tested on: A549
ACHN = tested on: ACHN
CAKI-1 = tested on: CAKI-1
CCRF-CEM = tested on: CCRF-CEM
COLO 205 = tested on: COLO 205
DLD-1 = tested on: DLD-1
DMS-114 = tested on: DMS-114
DMS-273 = tested on: DMS-273
EKVX = tested on: EKVX
HCC 2998 = tested on: HCC 2998
HCT-116 = tested on: HCT-116
HCT-15 = tested on: HCT-15
HL-60 = tested on: HL-60
HOP-62 = tested on: HOP-62
HT-29 = tested on: HT-29
IGROV-1 = tested on: IGROV-1
K562 = tested on: K562
KM-20L2 = tested on: KM-20L2
KM12 = tested on: KM12
LOX IMVI = tested on: LOX IMVI
LXFL 529 = tested on: LXFL 529
M14 = tested on: M14
M19-MEL = tested on: M19-MEL
MOLT-4 = tested on: MOLT-4
Malme-3M = tested on: Malme-3M
NCI-H226 = tested on: NCI-H226
NCI-H23 = tested on: NCI-H23
NCI-H460 = tested on: NCI-H460
NCI-H522 = tested on: NCI-H522
OVCAR-3 = tested on: OVCAR-3
OVCAR-5 = tested on: OVCAR-5
OVCAR-8 = tested on: OVCAR-8
RPMI-8226 = tested on: RPMI-8226
RXF 393 = tested on: RXF 393
SF-268 = tested on: SF-268
SF-295 = tested on: SF-295
SF-539 = tested on: SF-539
SK-MEL-28 = tested on: SK-MEL-28
SK-MEL-2 = tested on: SK-MEL-2
SK-MEL-5 = tested on: SK-MEL-5
SK-OV-3 = tested on: SK-OV-3
SN12C = tested on: SN12C
SNB-19 = tested on: SNB-19
SNB-75 = tested on: SNB-75
SNB-78 = tested on: SNB-78
SW-620 = tested on: SW-620
TK-10 = tested on: TK-10
U-251 = tested on: U-251
UACC-257 = tested on: UACC-257
UACC-62 = tested on: UACC-62
UO-31 = tested on: UO-31
XF498 = tested on: XF498
HOP-92 = tested on: HOP-92
OVCAR-4 = tested on: OVCAR-4
SR = tested on: SR

Cc1cc(N(CCC#N)CCC#N)ccc1/C=C1N=C(/C=C/c2ccccc2)OC(=O)N\1
GI50 (786-0): 37.8 µM (inactive) | GI50 (A498): > 100 µM (inactive) | GI50 (A549): > 100 µM (inactive) | GI50 (ACHN): > 100 µM (inactive) | GI50 (CAKI-1): > 100 µM (inactive) | GI50 (CCRF-CEM): > 100 µM (inactive) | GI50 (COLO 205): > 100 µM (inactive) | GI50 (DLD-1): > 100 µM (inactive) | GI50 (DMS-114): > 100 µM (inactive) | GI50 (DMS-273): > 100 µM (inactive) | GI50 (EKVX): > 100 µM (inactive) | GI50 (HCC 2998): > 100 µM (inactive) | GI50 (HCT-116): > 100 µM (inactive) | GI50 (HCT-15): > 100 µM | GI50 (HL-60): > 100 µM (inactive) | GI50 (HOP-62): > 100 µM (inactive) | GI50 (HT-29): > 100 µM (inactive) | GI50 (IGROV-1): > 100 µM (inactive) | GI50 (K562): > 100 µM (inactive) | GI50 (KM-20L2): > 100 µM (inactive) | GI50 (KM12): > 100 µM (inactive) | GI50 (LOX IMVI): > 100 µM (inactive) | GI50 (LXFL 529): > 100 µM (inactive) | GI50 (M14): > 100 µM (inactive) | GI50 (M19-MEL): > 100 µM (inactive) | GI50 (MOLT-4): > 100 µM (inactive) | GI50 (Malme-3M): > 100 µM (inactive) | GI50 (NCI-H226): 33 µM (inactive) | GI50 (NCI-H23): > 100 µM (inactive) | GI50 (NCI-H460): > 100 µM (inactive) | GI50 (NCI-H522): > 100 µM (inactive) | GI50 (OVCAR-3): 81.5 µM (inactive) | GI50 (OVCAR-5): > 100 µM (inactive) | GI50 (OVCAR-8): > 100 µM (inactive) | GI50 (RPMI-8226): > 100 µM (inactive) | GI50 (RXF 393): 91.8 µM (inactive) | GI50 (SF-268): > 100 µM (inactive) | GI50 (SF-295): 7.41 µM (inactive) | GI50 (SF-539): > 100 µM (inactive) | GI50 (SK-MEL-28): > 100 µM (inactive) | GI50 (SK-MEL-2): > 100 µM (inactive) | GI50 (SK-MEL-5): > 100 µM (inactive) | GI50 (SK-OV-3): 92.3 µM (inactive) | GI50 (SN12C): > 100 µM (inactive) | GI50 (SNB-19): > 100 µM (inactive) | GI50 (SNB-75): 31.3 µM (inactive) | GI50 (SNB-78): 43.3 µM (inactive) | GI50 (SW-620): > 100 µM (inactive) | GI50 (TK-10): > 100 µM (inactive) | GI50 (U-251): 61.5 µM (inactive) | GI50 (UACC-257): > 100 µM (inactive) | GI50 (UACC-62): > 100 µM (inactive) | GI50 (UO-31): > 100 µM (inactive) | GI50 (XF498): > 100 µM (inactive)

Cn1ccc2c(C(=O)c3ccccc3)cccc2c1=O
GI50 (786-0): 39.3 µM (inactive) | GI50 (A549): 57.4 µM (inactive) | GI50 (ACHN): 85.9 µM (inactive) | GI50 (CAKI-1): 68.2 µM (inactive) | GI50 (CCRF-CEM): 32.7 µM (inactive) | GI50 (COLO 205): 44.7 µM (inactive) | GI50 (DLD-1): 44.6 µM (inactive) | GI50 (DMS-114): 38.5 µM (inactive) | GI50 (DMS-273): 34.1 µM (inactive) | GI50 (EKVX): > 100 µM (inactive) | GI50 (HCC 2998): 89.5 µM (inactive) | GI50 (HCT-116): 36.7 µM (inactive) | GI50 (HCT-15): 25.8 µM | GI50 (HL-60): 24.9 µM (inactive) | GI50 (HOP-62): 31 µM (inactive) | GI50 (HOP-92): 49.2 µM (inactive) | GI50 (HT-29): 44.2 µM (inactive) | GI50 (IGROV-1): > 100 µM (inactive) | GI50 (KM12): 42.9 µM (inactive) | GI50 (LOX IMVI): 54.3 µM (inactive) | GI50 (LXFL 529): 67.9 µM (inactive) | GI50 (M14): 36.1 µM (inactive) | GI50 (M19-MEL): 74 µM (inactive) | GI50 (MOLT-4): 38 µM (inactive) | GI50 (Malme-3M): 45.4 µM (inactive) | GI50 (NCI-H460): 39.8 µM (inactive) | GI50 (NCI-H522): 21.3 µM (inactive) | GI50 (OVCAR-3): 36.8 µM (inactive) | GI50 (OVCAR-4): 95.5 µM (inactive) | GI50 (OVCAR-8): 56 µM (inactive) | GI50 (RPMI-8226): 33.2 µM (inactive) | GI50 (RXF 393): 47.5 µM (inactive) | GI50 (SF-268): 97.7 µM (inactive) | GI50 (SF-295): 20.7 µM (inactive) | GI50 (SF-539): 29.6 µM (inactive) | GI50 (SK-MEL-28): 60.5 µM (inactive) | GI50 (SK-MEL-2): 57.7 µM (inactive) | GI50 (SK-MEL-5): 28.8 µM (inactive) | GI50 (SK-OV-3): 70.8 µM (inactive) | GI50 (SN12C): 59.2 µM (inactive) | GI50 (SNB-75): 23.4 µM (inactive) | GI50 (SR): 56.1 µM (inactive) | GI50 (SW-620): 37.9 µM (inactive) | GI50 (TK-10): > 100 µM (inactive) | GI50 (UACC-257): > 100 µM (inactive) | GI50 (UACC-62): 31.6 µM (inactive) | GI50 (XF498): 47.1 µM (inactive)

CCOc1ccc(NC(=O)CC2SC(Nc3ccc(C)cc3C)=NC2=O)cc1 (stereo not drawn)
GI50 (786-0): > 100 µM (inactive) | GI50 (A498): > 100 µM (inactive) | GI50 (A549): > 100 µM (inactive) | GI50 (ACHN): > 100 µM (inactive) | GI50 (CAKI-1): > 100 µM (inactive) | GI50 (CCRF-CEM): 29.2 µM (inactive) | GI50 (DLD-1): > 100 µM (inactive) | GI50 (DMS-273): > 100 µM (inactive) | GI50 (EKVX): > 100 µM (inactive) | GI50 (HCC 2998): > 100 µM (inactive) | GI50 (HCT-116): > 100 µM (inactive) | GI50 (HCT-15): > 100 µM | GI50 (HL-60): 43.8 µM (inactive) | GI50 (HOP-92): > 100 µM (inactive) | GI50 (HT-29): > 100 µM (inactive) | GI50 (IGROV-1): > 100 µM (inactive) | GI50 (K562): 52 µM (inactive) | GI50 (KM-20L2): > 100 µM (inactive) | GI50 (LOX IMVI): > 100 µM (inactive) | GI50 (LXFL 529): 66.2 µM (inactive) | GI50 (M14): > 100 µM (inactive) | GI50 (M19-MEL): > 100 µM (inactive) | GI50 (MOLT-4): 21.4 µM (inactive) | GI50 (Malme-3M): > 100 µM (inactive) | GI50 (NCI-H226): 84.3 µM (inactive) | GI50 (NCI-H23): > 100 µM (inactive) | GI50 (NCI-H460): > 100 µM (inactive) | GI50 (NCI-H522): 5.38 µM (inactive) | GI50 (OVCAR-3): 48.8 µM (inactive) | GI50 (OVCAR-4): 90.8 µM (inactive) | GI50 (OVCAR-5): > 100 µM (inactive) | GI50 (OVCAR-8): 89.1 µM (inactive) | GI50 (RPMI-8226): 29.9 µM (inactive) | GI50 (RXF 393): > 100 µM (inactive) | GI50 (SF-268): 43.6 µM (inactive) | GI50 (SF-295): > 100 µM (inactive) | GI50 (SF-539): 26.7 µM (inactive) | GI50 (SK-MEL-28): > 100 µM (inactive) | GI50 (SK-MEL-2): > 100 µM (inactive) | GI50 (SK-MEL-5): > 100 µM (inactive) | GI50 (SN12C): > 100 µM (inactive) | GI50 (SNB-19): 54.3 µM (inactive) | GI50 (SNB-75): 49.2 µM (inactive) | GI50 (SNB-78): > 100 µM (inactive) | GI50 (SR): 29.5 µM (inactive) | GI50 (SW-620): > 100 µM (inactive) | GI50 (TK-10): > 100 µM (inactive) | GI50 (U-251): 36 µM (inactive) | GI50 (UACC-257): 85.7 µM (inactive) | GI50 (UACC-62): 54.2 µM (inactive) | GI50 (UO-31): > 100 µM (inactive) | GI50 (XF498): 50.4 µM (inactive)
